Laboratory results: US11325899B2, “Benzofurane and benzothiophene derivatives as PGE2 receptor modulators” (IDORSIA PHARMACEUTICALS LTD, priority 2017, dated 2022)

How the values were obtained:
Assay type in all cases: cell-based
[1] = target: T1, PTGER2 (EP2) (Homo sapiens, UniProt P43116); test: hEP2 b-arrestin assay (PathHunter HEK 293 PTGER2 b-arrestin cells); details: antagonistic activity, beta-arrestin assay; read-out: hEP2 b-arr IC50
T1 construct: host or cells: HEK 293 (PathHunter PTGER2 b-arrestin cell line)
T1 sequence (P43116 whole entry): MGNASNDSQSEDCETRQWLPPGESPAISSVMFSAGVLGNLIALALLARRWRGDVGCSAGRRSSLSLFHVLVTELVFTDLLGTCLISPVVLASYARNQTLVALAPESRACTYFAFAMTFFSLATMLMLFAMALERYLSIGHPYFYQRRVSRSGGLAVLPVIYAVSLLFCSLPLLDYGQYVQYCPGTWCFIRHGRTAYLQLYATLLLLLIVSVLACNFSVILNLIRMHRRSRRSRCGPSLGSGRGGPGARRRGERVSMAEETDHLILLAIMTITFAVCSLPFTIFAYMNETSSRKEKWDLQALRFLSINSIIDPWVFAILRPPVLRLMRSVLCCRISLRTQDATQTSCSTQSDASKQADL
Outline: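 PathHunter HEK293 cells with ProLink-tagged EP2 and EA-β-arrestin 2 preincubated 15 min at 37 °C with compound (10 μM-2 nM or 1 μM-0.2 nM), then stimulated 120 min with 5 μM PGE2 (EC80). β-gal complementation read by chemiluminescence; IC50 from duplicate dose-response versus DMSO.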

[2] = target: T2, PTGER4 (EP4) (Homo sapiens, UniProt P35408); test: hEP4 b-arrestin assay (PathHunter HEK 293 PTGER4 b-arrestin cells); details: antagonistic activity, beta-arrestin assay; read-out: hEP4 b-arr IC50
T2 construct: host or cells: HEK 293 (PathHunter PTGER4 b-arrestin cell line)
T2 sequence (P35408 whole entry): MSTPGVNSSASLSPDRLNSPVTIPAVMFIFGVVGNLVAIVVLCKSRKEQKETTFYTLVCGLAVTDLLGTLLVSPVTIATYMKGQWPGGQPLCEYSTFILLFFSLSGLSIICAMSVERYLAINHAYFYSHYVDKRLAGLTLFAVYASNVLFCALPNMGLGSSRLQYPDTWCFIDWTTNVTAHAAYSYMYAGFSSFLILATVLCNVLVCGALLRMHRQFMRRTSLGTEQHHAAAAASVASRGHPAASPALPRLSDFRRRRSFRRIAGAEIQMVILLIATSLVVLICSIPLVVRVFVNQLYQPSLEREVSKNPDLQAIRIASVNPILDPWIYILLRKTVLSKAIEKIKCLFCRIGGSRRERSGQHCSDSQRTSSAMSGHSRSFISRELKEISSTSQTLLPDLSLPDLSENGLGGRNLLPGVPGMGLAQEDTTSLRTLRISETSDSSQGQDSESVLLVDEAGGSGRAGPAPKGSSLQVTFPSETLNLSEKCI
Outline: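 PathHunter HEK 293 cells expressing ProLink-tagged human EP4 and EA-β-arrestin 2, seeded 24 h before. Compounds (10 μM–2 nM or 1 μM–0.2 nM) preincubated 15 min at 37 °C, then 20 nM PGE2 (EC80) for 120 min at 37 °C. β-gal complementation luminescence read; IC50 from duplicate dose-response curves versus DMSO control.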

[3] = target: T3, EP2 receptor (Homo sapiens, UniProt P43116); test: hEP2 cAMP assay (SF295 glioblastoma cells, HTRF cAMP, PGE2 stimulation); details: antagonistic activity
T3 construct: SF295 glioblastoma cells express high endogenous EP2 and no EP4; host or cells: SF295 glioblastoma cells
T3 sequence (P43116 whole entry): as the sequence (P43116 whole entry) above
Outline: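 SF295 glioblastoma cells with endogenous EP2 and no EP4, in HBSS/HEPES/BSA with 2 mM IBMX, pre-incubated 45 min at room temperature with compound, then stimulated 30 min with 75 nM PGE2 (EC80). cAMP measured by HTRF; IC50 fitted from duplicate % cAMP versus DMSO control.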

| Structure (SMILES) | IC50 [1] | IC50 [2] | IC50 [3] |
| --- | --- | --- | --- |
| Cc1sc2c(C)cccc2c1CCNc1cc(-c2ccc(C(=O)O)c(SC(C)C)c2)ncn1 [Example 90, 4-{6-[2-(2,7-Dimethyl-benzo[b]thiophen-3-yl)-ethylamino]-pyrimidin-4-yl}-2-isopropylsulfanyl-benzoic acid] | 11 nM | 247 nM | 35 nM |
| Cc1sc2ccccc2c1CCNc1cc(-c2ccc(C(=O)O)c(SC(C)C)c2)ncn1 [Example 91, 2-Isopropylsulfanyl-4-{6-[2-(2-methyl-benzo[b]thiophen-3-yl)-ethylamino]-pyrimidin-4-yl}-benzoic acid] | 20 nM | 843 nM | 10 nM |
| Cc1oc2ccccc2c1CCNc1cc(-c2ccc(C(=O)O)c(SC(C)C)c2)ncn1 [Example 92, 2-Isopropylsulfanyl-4-{6-[2-(2-methyl-benzofuran-3-yl)-ethylamino]-pyrimidin-4-yl}-benzoic acid] | 6 nM | 816 nM | 6 nM |
| CCc1cc(-c2cc(NCCc3c(C)sc4c(C)cc(F)cc34)ncn2)cc(C)c1CC(=O)O [Example 194, (2-Ethyl-4-{6-[2-(5-fluoro-2,7-dimethyl-benzo[b]thiophen-3-yl)-ethylamino]-pyrimidin-4-yl}-6-methyl-phenyl)-acetic acid] | 47 nM | 96 nM | 326 nM |
| Cc1sc2c(C)cc(F)cc2c1CCNc1cc(-c2ccc(C(=O)O)c(OC3CC3)c2)ncn1 [Example 195, 2-Cyclopropoxy-4-{6-[2-(5-fluoro-2,7-dimethyl-benzo[b]thiophen-3-yl)-ethylamino]-pyrimidin-4-yl}-benzoic acid] | 4 nM | 111 nM | 6 nM |
| Cc1sc2c(C)cc(F)cc2c1CCNc1cc(-c2ccc(CC(=O)O)c(OC3CC3)c2)ncn1 [Example 196, (2-Cyclopropoxy-4-{6-[2-(5-fluoro-2,7-dimethyl-benzo[b]thiophen-3-yl)-ethylamino]-pyrimidin-4-yl}-phenyl)-acetic acid] | 16 nM | 99 nM | 50 nM |
| CCOc1cc(-c2cc(NCCc3c(C)sc4c(C)cc(F)cc34)ncn2)ccc1-c1cc(O)no1 [Example 202, 5-(2-Ethoxy-4-{6-[2-(5-fluoro-2,7-dimethyl-benzo[b]thiophen-3-yl)-ethylamino]-pyrimidin-4-yl}-phenyl)-isoxazol-3-ol [tautomeric form: 5-(2-ethoxy-4-(6-((2-(5-fluoro-2,7-dimethylbenzo[b]thiophen-3-yl)ethyl)amino)pyrimidin-4-yl)phenyl)isoxazol-3(2H)-one]] | 17 nM | 100 nM | 75 nM |
